Among the data in patent US10913738B2 (BRISTOL-MYERS SQUIBB COMPANY, priority 2017, dated 2021) are IC50 values, retold here.

Like-named read-outs stand apart in the source and are kept apart here. A value given as a limit tells only on which side of the number the result lay.

Assay [1] deals with T1, His-GST-TVMV-hRIPK1(1-324) (Homo sapiens, UniProt Q13546).
T1 construct: The coding region of human RIPK1(1-324) flanked by NdeI site at 5′ end; made in house; host or cells: Spodoptera frugiperda (Sf9) insect cells, baculovirus
T1 sequence (Q13546 1-324): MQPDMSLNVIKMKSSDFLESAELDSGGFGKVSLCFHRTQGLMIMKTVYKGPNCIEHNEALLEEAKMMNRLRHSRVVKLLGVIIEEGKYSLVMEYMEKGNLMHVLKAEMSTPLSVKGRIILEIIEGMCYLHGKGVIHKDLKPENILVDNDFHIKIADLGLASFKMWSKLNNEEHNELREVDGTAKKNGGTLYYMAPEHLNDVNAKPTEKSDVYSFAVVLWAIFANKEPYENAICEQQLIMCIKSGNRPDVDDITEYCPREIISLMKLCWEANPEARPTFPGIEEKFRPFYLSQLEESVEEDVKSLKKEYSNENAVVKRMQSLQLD
As to the kind of experiment: RIPK1 HTRF Binding Assay. For orientation: Time-resolved FRET reads energy transfer from a long-lived donor to a nearby acceptor.

The test system of assay [2] is MLKL phosphorylation in HT29-L23 human colorectal adenocarcinoma cells. The assay is described as follows: MLKL Phosphorylation High-Content Assay. Particulars: Homo sapiens. The assay is classed as cell-based. The gist of the method: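 Cells incubated six hours at 37° C., then phospho-MLKL (S358) immunostained overnight at 4° C. and imaged by high-content microscopy. Phosphorylation quantified as mean circ-ring average intensity ratio; IC50 and Ymax from 4-parameter logistic fits.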

Setting [3] is: x marks IC50 class 20-200 nM, read-out: RIPK1 HTRF binding 20-200 nM.
Where [4] appears, read: x marks IC50 class >200 nM, read-out: pMLKL cell activity >200 nM.
[5] abbreviates: x marks IC50 class <20 nM, read-out: RIPK1 HTRF binding <20 nM.
Where [6] appears, read: x marks IC50 class <20 nM, read-out: pMLKL cell activity <20 nM.
The mark [7] stands for this setting: x marks IC50 class 20-200 nM, read-out: pMLKL cell activity 20-200 nM.

For the compound `Nc1nc2cc(-c3cnc(Cl)c(C(=O)NCc4cc(OC(F)(F)F)ccc4F)c3)ccn2n1` [Example 166, 5-{2-amino-[1,2,4]triazolo[1,5-a]pyridin-7-y1}-2-chloro-N-{[2-fluoro-5-(trifluoromethoxy)phenyl]methyl}pyridine-3-carboxamide], the values for the IC50 in assay [1] (setting [3]) and in assay [2] (setting [4]) were 20 to 200 nM and more than 200 nM, respectively.

As for `Nc1nc2cc(-c3cnc(Cl)c(C(=O)NCc4cccc(OC(F)(F)F)c4)c3)ccn2n1` [Example 167], the IC50 in assay [1] (setting [5]) and in assay [2] (setting [6]) was less than 20 nM each time.

For `Nc1nc2cc(-c3cnc(Cl)c(C(=O)NCc4ccccc4OC(F)(F)F)c3)ccn2n1` [Example 168, 5-{2-amino-[1,2,4]triazolo[1,5-a]pyridin-7-yl}-2-chloro-N-{[2-(trifluoromethoxy)phenyl]methyl}pyridine-3-carboxamide], the IC50 is 20 to 200 nM in assay [1] (setting [3]) and more than 200 nM in assay [2] (setting [4]).

As to `CC(CCNC(=O)c1cc(-c2ccn3nc(N)nc3c2)cnc1Cl)c1ccccc1` (stereo not drawn) [Example 169, 5-{2-amino-[1,2,4]triazolo[1,5-a]pyridin-7-yl}-2-chloro-N-(3-phenylbutyl)pyridine-3-carboxamide], the values for the IC50 in assay [1] (setting [3]) and in assay [2] (setting [4]) were 20 to 200 nM and more than 200 nM, respectively.

As to `[2H]C([2H])(NC(=O)c1cc(-c2ccn3nc(N)nc3c2)cnc1Cl)c1cc(OC(F)(F)F)ccc1F` [Example 171, 5-{2-amino-[1,2,4]triazolo[1,5-a]pyridin-7-yl}-2-chloro-N-{[2-fluoro-5-(trifluoromethoxy)phenyl](deutero)methyl}pyridine-3-carboxamide], the IC50 in assay [1] (setting [3]) and in assay [2] (setting [7]) was 20 to 200 nM in each case.

For the compound `Cc1nc(C)c(-c2ccn3nc(N)nc3c2)cc1C(=O)NCC(O)COc1ccccc1` (stereo not drawn) [Example 172, 5-{2-amino-[1,2,4]triazolo[1,5-a]pyridin-7-yl}-N-(2-hydroxy-3-phenoxypropyl)-2,6-dimethylpyridine-3-carboxamide], the IC50 in assay [1] (setting [5]) is less than 20 nM; in assay [2] (setting [7]) it was 20 to 200 nM.

Regarding `Cc1nc(C)c(-c2ccn3nc(N)nc3c2)cc1C(=O)NCC(O)Cc1ccccc1` (stereo not drawn) [Example 173], the IC50 in assay [1] (setting [3]) is 20 to 200 nM; in assay [2] (setting [4]), more than 200 nM.

On to `Cc1nc(C)c(-c2ccn3nc(N)nc3c2)cc1C(=O)NCCC(C)c1ccccc1` (stereo not drawn) [Example 174, 5-{2-amino-[1,2,4]triazolo[1,5-a]pyridin-7-yl}-2,6-dimethyl-N-(3-phenylbutyl)pyridine-3-carboxamide], for which the IC50 is 20 to 200 nM in assay [1] (setting [3]) and more than 200 nM in assay [2] (setting [4]).

With `Cc1nc(C)c(-c2ccn3nc(N)nc3c2)cc1C(=O)NCCc1cccc(OC(F)(F)F)c1` [Example 175, 5-{2-amino-[1,2,4]triazolo[1,5-a]pyridin-7-yl}-2,6-dimethyl-N-{2-[3-(trifluoromethoxy)phenyl]ethyl}pyridine-3-carboxamide], the IC50 in assay [1] (setting [5]) and in assay [2] (setting [6]) was less than 20 nM in each case.

`Cc1nc(C)c(-c2ccn3nc(N)nc3c2)cc1C(=O)NCc1cccc(OCC2CC2)c1` [Example 176, 5-{2-amino-[1,2,4]triazolo[1,5-a]pyridin-7-yl}-N-{[3-(cyclopropylmethoxy)phenyl]methyl]-2,6-dimethylpyridine-3-carboxamide]: the IC50 in assay [1] (setting [3]) was 20 to 200 nM; in assay [2] (setting [4]), more than 200 nM.

As to `Cc1nc(C)c(-c2ccn3nc(N)nc3c2)cc1C(=O)NCc1c(F)cc(F)cc1OCC1CCCC1` [Example 177, 5-{2-amino-[1,2,4]triazolo[1,5-a]pyridin-7-yl}-N-{[2-(cyclopentylmethoxy)-4,6-difluorophenyl]methyl}-2,6-dimethylpyridine-3-carboxamide], the figures for the IC50 in assay [1] (setting [5]) and in assay [2] (setting [7]) were less than 20 nM and 20 to 200 nM, respectively.

In the case of `Cc1nc(C)c(-c2ccn3nc(N)nc3c2)cc1C(=O)NCc1c(F)cccc1OCC1CCCC1` [Example 180, 5-12-amino-[1,2,4]triazolo[1,5-a]pyridin-7-yl}-N-{[2-(cyclopentylmethoxy)-6-fluorophenyllmethyl}-2,6-dimethylpyridine-3-carboxamide], the IC50 in assay [1] (setting [5]) is less than 20 nM; in assay [2] (setting [7]), 20 to 200 nM.

Turning to `Cc1nc(C)c(-c2ccn3nc(N)nc3c2)cc1C(=O)NCc1cc(OC(F)(F)F)ccc1F` [Example 181, 5-{2-amino-[1,2,4]triazolo[1,5-a]pyridin-7-yl}-N-{[2-fluoro-5-(trifluoromethoxy)phenyl]methyl}-2,6-dimethylpyridine-3-carboxamide], the IC50 in assay [1] (setting [5]) and in assay [2] (setting [6]) was less than 20 nM throughout.

For the compound `Cc1nc(C)c(-c2ccn3nc(N)nc3c2)cc1C(=O)NCc1ncccc1OCC1CCCC1` [Example 182, 5-{2-amino-[1,2,4]triazolo[1,5-a]pyridin-7-yl}-N-{[3-(cyclopentylmethoxy)pyridin-2-yl]methyl}-2,6-dimethylpyridine-3-carboxamide], the IC50 is less than 20 nM in assay [1] (setting [5]) and 20 to 200 nM in assay [2] (setting [7]).

On to `Cc1nc(C)c(-c2ccn3nc(N)nc3c2)cc1C(=O)NCc1cccnc1OCC1CCCC1` [Example 183], for which the IC50 in assay [1] (setting [3]) and in assay [2] (setting [7]) was 20 to 200 nM each time.

Consider `Cc1nc(C)c(-c2ccn3nc(N)nc3c2)cc1C(=O)NCc1cc(F)cc(F)c1OCC1CC1` [Example 184, 5-{2-amino-[1,2,4]triazolo[1,5-a]pyridin-7-yl}-N-{[2-(cyclopropylmethoxy)-3,5-difluorophenyl]methyl}-2,6-dimethylpyridine-3-carboxamide], for which the IC50 in assay [1] (setting [5]) and in assay [2] (setting [6]) was less than 20 nM each time.

Consider `Cc1nc(C)c(-c2ccn3nc(N)nc3c2)cc1C(=O)NCc1ccccc1OCC1CC1` [Example 185, 5-{2-amino-[1,2,4]triazolo[1,5-a]pyridin-7-yl}-N-{[2-(cyclopropylmethoxy)phenyl]methyl}-2,6-dimethylpyridine-3-carboxamide], for which the IC50 in assay [1] (setting [5]) and in assay [2] (setting [6]) was less than 20 nM in each case.

`Cc1nc(C)c(-c2ccn3nc(N)nc3c2)cc1C(=O)NCc1ccccc1OCC1CCCC1` [Example 186, 5-{2-amino-[1,2,4]triazolo[1,5-a]pyridin-7-yl}-N-{[2-(cyclopentylmethoxy)phenyl]methyl}-2,6-dimethylpyridine-3-carboxamide]: the IC50 in assay [1] (setting [5]) was less than 20 nM; in assay [2] (setting [7]), 20 to 200 nM.

Turning to `Cc1nc(C)c(-c2ccn3nc(N)nc3c2)cc1C(=O)NCc1cccnc1OCC1CCC1` [Example 187, 5-{2-amino-[1,2,4]triazolo[1,5-a]pyridin-7-yl}-N-{[2-(cyclobutylmethoxy)pyridin-3-yl]methyl}-2,6-dimethylpyridine-3-carboxamide], the IC50 in assay [1] (setting [3]) and in assay [2] (setting [7]) was 20 to 200 nM throughout.

As to `Cc1nc(C)c(-c2ccn3nc(N)nc3c2)cc1C(=O)NCc1cc(F)cc(F)c1OCC1CCCC1` [Example 188, 5-{2-amino-[1,2,4]triazolo[1,5-a]pyridin-7-yl}-N-{[2-(cyclopentylmethoxy)-3,5-difluorophenyl]methyl}-2,6-dimethylpyridine-3-carboxamide], the IC50 in assay [1] (setting [5]) and in assay [2] (setting [6]) was less than 20 nM each time.

With `Cc1nc(C)c(-c2ccn3nc(N)nc3c2)cc1C(=O)NCc1cccc(OC(F)(F)F)c1` [Example 189, 5-{2-amino-[1,2,4]triazolo[1,5-a]pyridin-7-yl}-2,6-dimethyl-N-{[3-(trifluoromethoxy)phenyl]methyl}pyridine-3-carboxamide], the IC50 in assay [1] (setting [3]) and in assay [2] (setting [7]) was 20 to 200 nM in each case.
